# Test results: article PMC8685350, “Activation of the SARS-CoV-2 NSP14 3′–5′ exoribonuclease by NSP10 and response to antiviral inhibitors” (The Journal of Biological Chemistry, 2021)
# What was measured:
# NSP14 = target: T1, NSP14 (Severe acute respiratory syndrome coronavirus 2, UniProt P0DTD1); type: binding
# T1 construct: gene rep; full-length NSP14, mature chain of replicase polyprotein 1ab; N-terminal His-tag (pDEST527), E. coli Rosetta2
# NSP10/14 complex [1] = target: T2, NSP10/14 complex (Severe acute respiratory syndrome coronavirus 2, UniProt P0DTD1); assay: biochemical
# T2 construct: gene rep; full-length NSP14 and NSP10 (139 aa), mature chains of replicase polyprotein 1ab; N-terminal His-tags (pDEST527), E. coli Rosetta2; assembled in vitro, copurified on Mono S, near stoichiometric; with Non-structural protein 10
# NSP10/14 complex [2] = target: T2, NSP10/14 complex; type: binding
structure (smiles),measurement,setting,value
Nc1ncnc2c1ncn2[C@@H]1O[C@H](CSCC[C@H](N)C(=O)O)[C@@H](O)[C@H]1O [S-adenosylhomocysteine],Tm at 40 μM SAH (control Tm 43.1 ± 0.2 °C),NSP14,48.5 ± 0.17 °C
same,EC50,NSP10/14 complex [1],25 ± 9 µM
same,Tm at 400 μM SAH,NSP10/14 complex [2],48.2 ± 0.2 °C
